Data reported in paper PMC7026418, “The kinase polypharmacology landscape of clinical PARP inhibitors” (Scientific Reports, 2020).
Read-outs that look alike come from different tables or passages of the source.

How the values were obtained:
Test in all cases: biochemical
Parameters in all cases: DiscoveRx KINOMEscan active site-directed competition binding; percent of control kinase bound to immobilised ligand
CAMK1D = CAMK1D (Homo sapiens, UniProt Q8IU85)
CSNK1G3 = CSNK1G3 (Homo sapiens, UniProt Q9Y6M4)
ERK4 = target: T1, ERK4 (Homo sapiens, UniProt P31152)
T1 construct: gene MAPK4
T1 sequence (P31152 whole entry): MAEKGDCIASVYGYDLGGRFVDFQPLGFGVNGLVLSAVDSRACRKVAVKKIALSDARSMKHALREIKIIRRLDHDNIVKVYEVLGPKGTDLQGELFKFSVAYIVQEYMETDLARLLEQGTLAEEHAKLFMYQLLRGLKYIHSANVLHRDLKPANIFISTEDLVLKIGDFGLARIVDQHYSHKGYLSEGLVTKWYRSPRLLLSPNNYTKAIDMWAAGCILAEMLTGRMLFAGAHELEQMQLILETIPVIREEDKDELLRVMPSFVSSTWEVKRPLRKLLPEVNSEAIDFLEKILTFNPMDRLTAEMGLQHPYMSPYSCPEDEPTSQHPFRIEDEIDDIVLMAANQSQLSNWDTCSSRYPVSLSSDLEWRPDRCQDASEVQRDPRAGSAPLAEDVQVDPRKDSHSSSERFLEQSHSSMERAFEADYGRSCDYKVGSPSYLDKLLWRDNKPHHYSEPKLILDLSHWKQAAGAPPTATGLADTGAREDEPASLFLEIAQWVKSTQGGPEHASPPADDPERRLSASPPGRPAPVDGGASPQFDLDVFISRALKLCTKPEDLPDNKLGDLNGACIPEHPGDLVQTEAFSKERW

FGR = FGR (Homo sapiens, UniProt P09769)
GRK1 = target: T2, GRK1 (Homo sapiens, UniProt Q15835)
T2 sequence (Q15835 1-563): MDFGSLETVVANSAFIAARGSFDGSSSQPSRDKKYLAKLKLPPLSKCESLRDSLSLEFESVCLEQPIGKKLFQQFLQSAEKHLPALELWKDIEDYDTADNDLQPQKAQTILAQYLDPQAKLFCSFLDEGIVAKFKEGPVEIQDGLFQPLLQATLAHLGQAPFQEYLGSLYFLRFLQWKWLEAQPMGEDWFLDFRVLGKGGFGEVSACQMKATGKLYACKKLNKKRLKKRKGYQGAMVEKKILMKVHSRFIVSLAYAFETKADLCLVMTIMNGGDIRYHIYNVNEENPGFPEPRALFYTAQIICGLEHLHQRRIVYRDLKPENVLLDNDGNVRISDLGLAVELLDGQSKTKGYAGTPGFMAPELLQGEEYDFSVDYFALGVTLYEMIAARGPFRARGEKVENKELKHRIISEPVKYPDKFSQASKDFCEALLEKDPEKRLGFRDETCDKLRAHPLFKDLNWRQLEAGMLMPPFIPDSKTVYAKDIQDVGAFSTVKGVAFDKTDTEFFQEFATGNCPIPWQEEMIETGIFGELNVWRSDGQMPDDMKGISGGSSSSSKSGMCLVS

KIT(V559D,V654A) = KIT(V559D,V654A) (Homo sapiens, UniProt P10721, V559D/V654A)
KIT(V559D,V654A), sequence (P10721 whole entry V559D/V654A): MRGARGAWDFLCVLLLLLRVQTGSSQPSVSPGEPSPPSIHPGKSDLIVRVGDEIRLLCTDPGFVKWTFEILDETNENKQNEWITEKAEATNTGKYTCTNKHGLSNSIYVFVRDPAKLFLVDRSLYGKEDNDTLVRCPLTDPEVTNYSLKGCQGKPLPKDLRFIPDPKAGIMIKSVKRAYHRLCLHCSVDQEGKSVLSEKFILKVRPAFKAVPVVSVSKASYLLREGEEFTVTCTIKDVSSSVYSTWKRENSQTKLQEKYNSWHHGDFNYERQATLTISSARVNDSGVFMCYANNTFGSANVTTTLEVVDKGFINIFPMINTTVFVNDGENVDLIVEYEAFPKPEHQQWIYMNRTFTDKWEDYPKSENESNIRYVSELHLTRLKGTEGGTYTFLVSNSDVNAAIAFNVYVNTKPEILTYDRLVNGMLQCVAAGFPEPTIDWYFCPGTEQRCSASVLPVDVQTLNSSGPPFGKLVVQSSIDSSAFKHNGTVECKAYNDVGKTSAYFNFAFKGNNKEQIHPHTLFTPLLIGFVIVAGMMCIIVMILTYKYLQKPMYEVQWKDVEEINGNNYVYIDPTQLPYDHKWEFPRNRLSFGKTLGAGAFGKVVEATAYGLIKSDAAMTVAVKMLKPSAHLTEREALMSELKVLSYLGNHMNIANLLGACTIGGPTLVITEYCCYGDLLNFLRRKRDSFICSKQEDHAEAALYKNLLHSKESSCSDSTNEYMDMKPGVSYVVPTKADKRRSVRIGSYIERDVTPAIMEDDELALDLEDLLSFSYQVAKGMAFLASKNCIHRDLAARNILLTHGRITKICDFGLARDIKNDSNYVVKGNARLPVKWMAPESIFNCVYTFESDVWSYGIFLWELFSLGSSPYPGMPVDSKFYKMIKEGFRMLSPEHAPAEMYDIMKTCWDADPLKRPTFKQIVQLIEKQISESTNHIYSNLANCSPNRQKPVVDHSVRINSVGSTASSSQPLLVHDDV

MLK2 = target: T3, MLK2 (Homo sapiens, UniProt Q02779)
T3 construct: gene MAP3K10

MRCKA = target: T4, MRCKA (Homo sapiens, UniProt Q5VT25)
T4 construct: gene CDC42BPA
T4 sequence (Q5VT25 whole entry): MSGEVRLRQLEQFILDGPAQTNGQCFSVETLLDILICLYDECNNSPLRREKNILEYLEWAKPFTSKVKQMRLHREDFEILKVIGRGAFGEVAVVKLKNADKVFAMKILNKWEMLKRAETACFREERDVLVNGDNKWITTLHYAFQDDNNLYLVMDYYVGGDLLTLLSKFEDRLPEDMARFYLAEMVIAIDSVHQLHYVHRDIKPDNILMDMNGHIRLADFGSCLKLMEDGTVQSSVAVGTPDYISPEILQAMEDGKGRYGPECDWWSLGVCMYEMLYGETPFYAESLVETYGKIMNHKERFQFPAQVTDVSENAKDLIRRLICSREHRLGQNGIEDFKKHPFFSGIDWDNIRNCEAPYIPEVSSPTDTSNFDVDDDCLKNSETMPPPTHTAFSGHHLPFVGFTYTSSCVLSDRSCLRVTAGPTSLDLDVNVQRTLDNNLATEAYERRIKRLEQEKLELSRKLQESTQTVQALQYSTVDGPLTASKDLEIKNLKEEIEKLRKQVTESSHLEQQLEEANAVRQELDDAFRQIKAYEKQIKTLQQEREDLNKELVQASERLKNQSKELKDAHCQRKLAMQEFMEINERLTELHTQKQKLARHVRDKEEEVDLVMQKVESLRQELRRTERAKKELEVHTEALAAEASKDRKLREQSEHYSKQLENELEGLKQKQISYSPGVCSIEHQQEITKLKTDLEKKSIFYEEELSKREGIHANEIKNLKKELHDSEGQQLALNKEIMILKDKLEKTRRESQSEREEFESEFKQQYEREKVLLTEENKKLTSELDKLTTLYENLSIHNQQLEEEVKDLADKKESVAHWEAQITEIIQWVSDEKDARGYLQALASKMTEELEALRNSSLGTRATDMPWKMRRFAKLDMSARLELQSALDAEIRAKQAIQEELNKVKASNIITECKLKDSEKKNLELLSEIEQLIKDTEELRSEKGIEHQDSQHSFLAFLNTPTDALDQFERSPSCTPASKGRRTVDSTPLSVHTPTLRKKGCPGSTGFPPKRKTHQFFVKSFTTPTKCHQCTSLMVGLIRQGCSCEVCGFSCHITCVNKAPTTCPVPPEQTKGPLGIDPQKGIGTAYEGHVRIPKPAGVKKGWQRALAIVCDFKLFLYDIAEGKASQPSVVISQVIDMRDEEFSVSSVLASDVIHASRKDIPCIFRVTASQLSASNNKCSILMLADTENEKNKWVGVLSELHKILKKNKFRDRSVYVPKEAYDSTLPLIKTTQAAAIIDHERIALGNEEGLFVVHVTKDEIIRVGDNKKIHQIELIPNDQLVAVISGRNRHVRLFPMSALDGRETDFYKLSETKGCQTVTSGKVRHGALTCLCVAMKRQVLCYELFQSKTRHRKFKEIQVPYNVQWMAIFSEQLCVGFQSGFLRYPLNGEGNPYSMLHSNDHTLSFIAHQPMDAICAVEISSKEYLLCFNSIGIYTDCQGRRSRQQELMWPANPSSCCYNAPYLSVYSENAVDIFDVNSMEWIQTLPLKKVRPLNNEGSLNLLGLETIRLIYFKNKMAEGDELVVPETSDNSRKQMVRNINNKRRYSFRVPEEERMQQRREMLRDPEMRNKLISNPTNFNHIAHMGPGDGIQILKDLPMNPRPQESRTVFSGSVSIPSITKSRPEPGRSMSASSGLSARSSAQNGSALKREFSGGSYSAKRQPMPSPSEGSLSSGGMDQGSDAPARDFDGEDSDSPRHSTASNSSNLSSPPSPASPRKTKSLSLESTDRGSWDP

PIK3C2B = PIK3C2B (Homo sapiens, UniProt O00750)
SNARK = target: T5, SNARK (Homo sapiens, UniProt Q9H093)
T5 construct: gene NUAK2
T5 sequence (Q9H093 1-628): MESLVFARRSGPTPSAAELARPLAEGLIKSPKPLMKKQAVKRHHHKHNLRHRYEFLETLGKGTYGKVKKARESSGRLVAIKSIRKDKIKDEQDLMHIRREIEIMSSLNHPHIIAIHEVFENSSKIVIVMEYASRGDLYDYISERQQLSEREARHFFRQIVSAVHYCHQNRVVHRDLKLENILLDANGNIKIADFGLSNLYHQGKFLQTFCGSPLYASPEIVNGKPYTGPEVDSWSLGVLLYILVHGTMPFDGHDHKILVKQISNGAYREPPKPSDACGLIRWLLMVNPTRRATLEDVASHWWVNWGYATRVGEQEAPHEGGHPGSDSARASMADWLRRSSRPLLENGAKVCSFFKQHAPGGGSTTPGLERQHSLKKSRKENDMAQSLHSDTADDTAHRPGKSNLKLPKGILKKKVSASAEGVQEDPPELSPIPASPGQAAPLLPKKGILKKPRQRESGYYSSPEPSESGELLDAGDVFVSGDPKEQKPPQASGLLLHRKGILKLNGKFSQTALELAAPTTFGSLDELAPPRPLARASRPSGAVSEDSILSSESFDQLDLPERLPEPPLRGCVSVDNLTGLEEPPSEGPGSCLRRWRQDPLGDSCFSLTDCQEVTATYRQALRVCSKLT

SRC = SRC (Homo sapiens, UniProt P12931)
SRC, sequence (P12931 whole entry): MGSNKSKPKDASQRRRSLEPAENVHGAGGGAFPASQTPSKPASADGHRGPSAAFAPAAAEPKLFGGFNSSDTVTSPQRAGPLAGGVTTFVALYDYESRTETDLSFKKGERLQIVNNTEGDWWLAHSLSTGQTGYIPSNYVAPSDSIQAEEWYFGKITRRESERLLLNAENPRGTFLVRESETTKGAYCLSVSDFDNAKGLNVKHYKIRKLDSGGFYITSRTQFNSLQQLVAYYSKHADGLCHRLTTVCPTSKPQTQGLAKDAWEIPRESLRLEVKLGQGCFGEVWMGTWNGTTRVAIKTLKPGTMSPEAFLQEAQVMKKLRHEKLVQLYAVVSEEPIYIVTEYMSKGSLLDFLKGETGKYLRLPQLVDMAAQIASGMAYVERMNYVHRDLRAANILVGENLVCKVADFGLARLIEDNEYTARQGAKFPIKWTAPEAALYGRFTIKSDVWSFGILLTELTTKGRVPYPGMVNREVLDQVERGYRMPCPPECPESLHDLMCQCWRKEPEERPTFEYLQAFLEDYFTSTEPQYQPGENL

TIE2 = target: T6, TIE2 (Homo sapiens, UniProt Q02763)
T6 construct: gene TEK

TLK2 = TLK2 (Homo sapiens, UniProt Q86UE8)
YES = target: T7, YES (Homo sapiens, UniProt P07947)
T7 construct: gene YES1
T7 sequence (P07947 whole entry): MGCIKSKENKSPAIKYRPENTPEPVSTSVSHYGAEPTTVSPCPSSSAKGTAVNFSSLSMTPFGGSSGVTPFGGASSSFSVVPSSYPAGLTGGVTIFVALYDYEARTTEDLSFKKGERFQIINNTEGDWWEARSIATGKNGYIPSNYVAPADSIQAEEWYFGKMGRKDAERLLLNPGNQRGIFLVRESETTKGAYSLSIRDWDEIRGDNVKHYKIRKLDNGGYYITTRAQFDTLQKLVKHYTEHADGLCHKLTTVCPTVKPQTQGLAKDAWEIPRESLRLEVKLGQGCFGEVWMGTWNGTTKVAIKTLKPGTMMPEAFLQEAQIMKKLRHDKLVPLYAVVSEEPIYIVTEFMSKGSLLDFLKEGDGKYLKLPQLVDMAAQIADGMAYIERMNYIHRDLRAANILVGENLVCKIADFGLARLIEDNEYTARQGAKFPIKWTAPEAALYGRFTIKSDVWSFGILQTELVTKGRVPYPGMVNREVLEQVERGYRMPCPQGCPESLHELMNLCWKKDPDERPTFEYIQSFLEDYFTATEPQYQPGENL

[1] = read-out: Talazoparib (BMN 673) / %Ctrl @ 10000nM
[2] = read-out: Olaparib / %Ctrl @ 10000nM
[3] = read-out: Rucaparib / %Ctrl @ 10000nM, binding competition, % of control
[4] = read-out: Niraparib (MK-4827) / %Ctrl @ 10000nM

CAMK1D, sequence (Q8IU85 whole entry): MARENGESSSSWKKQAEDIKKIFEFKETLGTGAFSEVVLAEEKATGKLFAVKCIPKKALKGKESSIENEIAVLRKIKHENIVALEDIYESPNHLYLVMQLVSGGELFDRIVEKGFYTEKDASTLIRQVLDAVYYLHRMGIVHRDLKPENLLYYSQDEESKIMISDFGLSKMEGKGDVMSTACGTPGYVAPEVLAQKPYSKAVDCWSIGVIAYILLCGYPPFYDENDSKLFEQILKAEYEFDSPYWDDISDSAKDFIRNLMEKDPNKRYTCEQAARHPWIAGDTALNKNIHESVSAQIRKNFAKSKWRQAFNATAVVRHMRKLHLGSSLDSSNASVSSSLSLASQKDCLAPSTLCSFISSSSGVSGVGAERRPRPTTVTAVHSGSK

Cn1ncnc1[C@H]1c2n[nH]c(=O)c3cc(F)cc(c23)N[C@@H]1c1ccc(F)cc1 [Talazoparib]
percent of control binding at 10 µM (CAMK1D; [1]): 91%
percent of control binding at 10 µM (CSNK1G3; [1]): 88%
percent of control binding at 10 µM (ERK4; [1]): 100%
percent of control binding at 10 µM (FGR; [1]): 99%
percent of control binding at 10 µM (GRK1; [1]): 100%
percent of control binding at 10 µM (KIT(V559D,V654A); [1]): 96%
percent of control binding at 10 µM (MLK2; [1]): 70%
percent of control binding at 10 µM (MRCKA; [1]): 100%
percent of control binding at 10 µM (PIK3C2B; [1]): 67%
percent of control binding at 10 µM (SNARK; [1]): 100%
percent of control binding at 10 µM (SRC; [1]): 93%
percent of control binding at 10 µM (TIE2; [1]): 100%
percent of control binding at 10 µM (TLK2; [1]): 84%
percent of control binding at 10 µM (YES; [1]): 92%

O=C(c1cc(Cc2n[nH]c(=O)c3ccccc23)ccc1F)N1CCN(C(=O)C2CC2)CC1 [Olaparib]
percent of control binding at 10 µM (CAMK1D; [2]): 94%
percent of control binding at 10 µM (CSNK1G3; [2]): 93%
percent of control binding at 10 µM (ERK4; [2]): 100%
percent of control binding at 10 µM (FGR; [2]): 92%
percent of control binding at 10 µM (GRK1; [2]): 91%
percent of control binding at 10 µM (KIT(V559D,V654A); [2]): 95%
percent of control binding at 10 µM (MLK2; [2]): 97%
percent of control binding at 10 µM (MRCKA; [2]): 98%
percent of control binding at 10 µM (PIK3C2B; [2]): 100%
percent of control binding at 10 µM (SNARK; [2]): 72%
percent of control binding at 10 µM (SRC; [2]): 100%
percent of control binding at 10 µM (TIE2; [2]): 100%
percent of control binding at 10 µM (TLK2; [2]): 95%
percent of control binding at 10 µM (YES; [2]): 93%

CNCc1ccc(-c2[nH]c3cc(F)cc4c3c2CCNC4=O)cc1 [Rucaparib]
percent of control binding at 10 µM (CAMK1D; [3]): 86%
percent of control binding at 10 µM (CSNK1G3; [3]): 97%
percent of control binding at 10 µM (ERK4; [3]): 97%
percent of control binding at 10 µM (FGR; [3]): 96%
percent of control binding at 10 µM (GRK1; [3]): 64%
percent of control binding at 10 µM (KIT(V559D,V654A); [3]): 92%
percent of control binding at 10 µM (MLK2; [3]): 63%
percent of control binding at 10 µM (MRCKA; [3]): 97%
percent of control binding at 10 µM (PIK3C2B; [3]): 98%
percent of control binding at 10 µM (SNARK; [3]): 50%
percent of control binding at 10 µM (SRC; [3]): 99%
percent of control binding at 10 µM (TIE2; [3]): 92%
percent of control binding at 10 µM (TLK2; [3]): 84%
percent of control binding at 10 µM (YES; [3]): 99%

NC(=O)c1cccc2cn(-c3ccc([C@@H]4CCCNC4)cc3)nc12 [Niraparib]
percent of control binding at 10 µM (CAMK1D; [4]): 84%
percent of control binding at 10 µM (CSNK1G3; [4]): 85%
percent of control binding at 10 µM (ERK4; [4]): 98%
percent of control binding at 10 µM (FGR; [4]): 85%
percent of control binding at 10 µM (GRK1; [4]): 95%
percent of control binding at 10 µM (KIT(V559D,V654A); [4]): 90%
percent of control binding at 10 µM (MLK2; [4]): 69%
percent of control binding at 10 µM (MRCKA; [4]): 100%
percent of control binding at 10 µM (PIK3C2B; [4]): 100%
percent of control binding at 10 µM (SNARK; [4]): 98%
percent of control binding at 10 µM (SRC; [4]): 94%
percent of control binding at 10 µM (TIE2; [4]): 98%
percent of control binding at 10 µM (TLK2; [4]): 95%
percent of control binding at 10 µM (YES; [4]): 83%
